Where two headings read alike, the source gives them in different places.
Key:
Type in all cases: cell-based
[1] = system: Zidovudine^R/Lamivudine^R (3) clinical HIV-1 isolates (third group of Table 7); assay: microbe, parasite or virus in culture
Procedure: ANTIVIRAL ASSAYS. […] Briefly, cells were incubated with virus at a multiplicity of infection (MOI) of 0.005 for T cell assays and an MOI of 0.5 for monocytic cell assays for 3 hrs. Unbound virus was then removed by washing the cells, followed by seeding the cells into a 96-well plate. The infected cells were cultured in the presence of a serial concentrations of the test compound for 5-7 days. The anti-HIV-1 efficacy was determined by testing for HIV-1 RT activity or p24 level in the cell culture supernatants. All assays were performed in duplicate. Zidovudine and/or lamivudine were used as controls in each experiment.
Clinical strains were isolated from PBMCs of HIV-1 infected individuals through co-culture with PBMCs from normal dornors.

[2] = system: HIV-19881; assay: Anti-HIV-1 assay, non-syncytium inducing strain (p24); conditions: Human immunodeficiency virus 1, PBMC; HIV-19881, PBMCs, determined by p24
Procedure: (§1) ANTIVIRAL ASSAYS. The anti-HIV-1 activity of the compound A (−) were assessed by employing HIV-1IIIB in a variety of cell types as previously described (Gu et al., 1992, 1994, 1999; Rando et al., 1995; Salomon et al., 1994). Briefly, cells were incubated with virus at a multiplicity of infection (MOI) of 0.005 for T cell assays and an MOI of 0.5 for monocytic cell assays for 3 hrs. Unbound virus was then removed by washing the cells, followed by seeding the cells into a 96-well plate. The infected cells were cultured in the presence of a serial concentrations of the test compound for 5-7 days. The anti-HIV-1 efficacy was determined by testing for HIV-1 RT activity or p24 level in the cell culture supernatants. All assays were performed in duplicate. Zidovudine and/or lamivudine were used as controls in each experiment.
(§2) Furthermore, antiretroviral activity of the compound A (−) was also assessed using different types of HIV-1 strains. […]

[3] = system: HXB2-D (wt); assay: Recombinant HIV-1 variants (RT activity); conditions: Human immunodeficiency virus 1, HXB2
Procedure: as §1
(§3) Recombinant HIV-1 variants were prepared by introducing the designed mutations into HXB2-D by site-directed mutagenesis as described (Gu et al. 1992, 1994). The virus stocks were prepared by transfecting MT-4 cells with infectious viral DNA constructs. Antiviral activity of the compound A (−) was evaluated as described in example 10.

[4] = system: HIV-1macBAL; assay: Anti-HIV-1 assay, dual tropic strain (p24); conditions: determined by p24
Procedure: as §1, §2

[5] = system: HIV-1WRM8488; assay: Anti-HIV-1 assay, monocytropic strain (p24); conditions: Human immunodeficiency virus 1; HIV-1WRM8488, m/m cells, determined by p24
Procedure: as §1, §2

[6] = system: E89G/M184V; assay: Recombinant drug resistant HIV-1 variants (RT activity); conditions: Human immunodeficiency virus 1
Procedure: as §1, §3

[7] = system: NNRTI^R; assay: as above; conditions: Human immunodeficiency virus 1
Procedure: as §1, §3

[8] = system: JM1; assay: as above; conditions: Human immunodeficiency virus 1, JM1
Procedure: as §1, §3

[9] = system: K65R/M184V; assay: as above; conditions: Human immunodeficiency virus 1
Procedure: as §1, §3

[10] = system: JM4; assay: as above; conditions: Human immunodeficiency virus 1
Procedure: as §1, §3

[11] = system: L74V; assay: as above; conditions: Human immunodeficiency virus 1
Procedure: as §1, §3

[12] = system: M184V; assay: as above; conditions: Human immunodeficiency virus 1
Procedure: as §1, §3

[13] = system: M184I; assay: as above; conditions: Human immunodeficiency virus 1
Procedure: as §1, §3

[14] = system: PI^R; assay: as above; conditions: Human immunodeficiency virus 1
Procedure: as §1, §3

[15] = system: DU-145; assay: Cellular toxicity by [3H]-thymidine uptake; conditions: 72 hrs
Summary of the method: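 Cells plated at 1-2×10^3/well, pre-incubated 24 h, then exposed 72 h to 10-fold serial compound dilutions (10^−4 M to 10^−10 M). [3H]-thymidine was added for the final 18 h and DNA incorporation counted after hypotonic lysis and harvesting. CC50 derived from cpm relative to untreated controls.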

[16] = Human immunodeficiency virus 1, read-out: EC50 (μM), mean EC50 values
[17] = Human immunodeficiency virus 1, read-out: EC50 (μM), ranges of EC50s of the isolates in the same group
[18] = Human immunodeficiency virus 1, PBMC, PBMCs
[19] = Human immunodeficiency virus 1, m/m cells

Row | Structure (SMILES) | EC50 [1, 16] | EC50 [1, 17] | EC50 [2] | EC50 [3] | EC50 [4, 18] | EC50 [4, 19] | EC50 [5] | EC50 [6] | EC50 [7] | EC50 [8] | EC50 [9] | EC50 [10] | EC50 [11] | EC50 [12] | EC50 [13] | EC50 [14] | CC50 (μM) [^3H-]TTP incorporation in: U-145 ([15]; Table 4) | CC50 ([15]; Table 14, read-out: CC50 (μM) [^3H]TTP incorporation in: U145)
1 | Nc1nc(NC2CC2)c2ncn([C@H]3CO[C@@H](CO)O3)c2n1 [Compound A (-), (−)-(2R,4R)-2-hydroxymethyl-4-(2′-amino-6′-cyclopropylamino-purine-9′-yl)-1,3-dioxolane] | 0.19 µM | 0.066 to 0.33 µM | 0.59 µM | 0.53 µM | 4.14 µM | 0.022 µM | 0.028 µM | 0.51 µM | 0.1 µM | 1.83 µM | 1.1 µM | 0.58 µM | 0.62 µM | 0.53 µM | 0.99 µM | 0.2 µM | – | –
2 | Nc1ccn([C@@H]2CS[C@H](CO)O2)c(=O)n1 [Lamivudine, lamivudine] | – | – | – | 0.35 µM | – | – | – | > 40 µM | 0.15 µM | > 40 µM | > 40 µM | 0.85 µM | 0.51 µM | > 40 µM | > 40 µM | 0.29 µM | >500/100 | –
3 | Cc1cn([C@H]2C[C@H](N=[N+]=[N-])[C@@H](CO)O2)c(=O)[nH]c1=O [Zidovudine, zidovudine] | 0.83 µM | 0.25 to 1.74 µM | 0.0017 µM | 0.023 µM | 0.043 µM | < 0.0011 µM | < 0.0011 µM | 0.022 µM | 0.0061 µM | 0.027 µM | 0.031 µM | 0.27 µM | 0.01 µM | 0.02 µM | 0.009 µM | 0.017 µM | – | > 10 µM

— patent US20010049372A1, “Antiviral nucleoside analogues” (BioChem Pharma Inc., priority 1998, published 2001)
